Key:
[1] = tested on: Carrageenin-induced paw edema; experiment: Carrageenin-induced paw edema in rats [Test 2]; assay type: in vivo, SD-strain male rats
Description: (a) Experimental animals: SD-strain male rats (120-180 g).
A micro-emulsion containing ethyl 4-biphenylylacetate prepared as in Examples 11, 12, 13 and 14 given hereinafter was administered at a dose of 5 ml per kg of the animals. Venolipid® (Morishita Pharmaceutical Co., Ltd.) was used as a vehicle control. As control drugs, a solution or suspension of ethyl 4-biphenylylacetate in physiological saline containing 0.5% Cremophor EL® (Sigma Chemical Company, a solubilizing agent), 0.2% of polyethylene glycol 400 and 10% of dimethyl sulfoxide, a physiological saline solution of sodium 4-biphenylylacetate and a physiological saline solution of Aspirin DL-lysine [Venopirin®, Green Cross Co.] were used. As the vehicle control of the control drugs, the above solvents were used.
A 1% carrageenin solution in physiological saline was injected subcutaneously in an amount of 0.05 ml into the planter surface of the left hind paw of each rat via a 25 gauge needle fitted to a 0.25 ml syringe. One hour after carrageenin injection, the rats were randomized on the basis of the edema volume, and intravenous administration of the drugs and vehicles followed immediately. The volume of the left hind paw was measured by a plethysmometer (Ugo Basile) prior to the injection of the carrageenin solution and at 2, 3, 4, 5 and 6 hours after the carrageenin injection. As the volume of edema, an increase in the paw volume was taken.
The inhibition percents were calculated in accordance with the same calculation formula as in Test 1.

[2] = tested on: Adjuvant-induced polyarthritis; experiment: Adjuvant-induced polyarthritis in rats, adjuvant-injected paw [Test 2]; assay type: in vivo, SD-strain female rats
Description: (a) Experimental animals: SD-strain famale rats 140-180g).
(§1) (b) Test drugs: The same as in A-1 [Test 2].
Rats were anesthetized with ether inhalation, and 0.6 mg of Mycobacterium butyricum suspended in 0.1 ml of white paraffin oil was immediately injected intradermally into the planter surface of the left hind paw of each rat via a 27 gauge needle fitted to a 0.5 ml syringe (day 0). On the 14th day after the adjuvant injection, arthritis-established rats selected by development of secondary lesions were used. Volumes of both hind paws in arthritis-established rats were measured by a plethysmometer (UGO BASILE), and the rats were randomized on the basis of the edema volume in the adjuvant-injected paw. Once daily, beginning on the 14th day up to the 18th day, drugs and vehicles were administered intravenously. Measurements of both paw volumes were performed every day from the 15th day up to the 18th day, and on the 21st day and the 24th day. The inhibition percent were calculated in accordance with the calculation formula as in [Test 1] of A-1.

[3] = tested on: brewer's yeast-induced fever; experiment: Effects on body temperature in pyretic rats (antipyretic activity); assay type: in vivo, SD-strain male rats; conditions: iv, 17 hours after yeast; against vehicle control; read-out: ED50 (dose reducing body temperature by at least 1.5° C. in 50% of the rats)
Description: (a) Experimental animals SD-strain male rats (120-185 g).
as §1
Male Sprague-Dawley rats, weighing 120-185 g, were injected subcutaneously in the nape of the neck with 2 ml of a 20% suspension of dried brewers yeast in physiological saline. Drugs and vehicles were administered intravenously 17 hours after treatment of yeast suspension. Rectal temperature was recorded with a thermistor type thermometer (Natsume Seisakusho, BMA-77 Type) just prior to drug administration and at 1/2, 1, 2 and 4 hours after drug administration.

[4] = rat, in vivo
Description: (a) Experimental animals: Wistar-strain male rats (body weight 60-220 g), 6 per group.
The rats were periodically killed, and the major organs were extracted. The concentration of the drug in the tissues were measured by the conventional HPLC method.

[5] = in vivo, po; cited from earlier work

CCOC(=O)Cc1ccc(-c2ccccc2)cc1 [Ethyl 4-biphenylylacetate]
Inhibition (%) ([1]; 1.25 mg/kg i.v. as 4-biphenylylacetic acid, 2 h after carrageenin): 14.0% | Inhibition (%) ([1]; 1.25 mg/kg i.v. as 4-biphenylylacetic acid, 3 h after carrageenin): 17.5% | Inhibition (%) ([1]; 1.25 mg/kg i.v. as 4-biphenylylacetic acid, 4 h after carrageenin): 9.6% | Inhibition (%) ([1]; 1.25 mg/kg i.v. as 4-biphenylylacetic acid, 5 h after carrageenin): 9.8% | Inhibition (%) ([1]; 1.25 mg/kg i.v. as 4-biphenylylacetic acid, 6 h after carrageenin): 6.4% | Inhibition (%) ([1]; 2.5 mg/kg i.v. as 4-biphenylylacetic acid, 2 h after carrageenin): 19.3% | Inhibition (%) ([1]; 2.5 mg/kg i.v. as 4-biphenylylacetic acid, 3 h after carrageenin): 26.3% | Inhibition (%) ([1]; 2.5 mg/kg i.v. as 4-biphenylylacetic acid, 4 h after carrageenin): 17.3% | Inhibition (%) ([1]; 2.5 mg/kg i.v. as 4-biphenylylacetic acid, 5 h after carrageenin): 17.6% | Inhibition (%) ([1]; 2.5 mg/kg i.v. as 4-biphenylylacetic acid, 6 h after carrageenin): 12.8% | Inhibition (%) ([1]; 5.0 mg/kg i.v. as 4-biphenylylacetic acid, 2 h after carrageenin): 17.5% | Inhibition (%) ([1]; 5.0 mg/kg i.v. as 4-biphenylylacetic acid, 3 h after carrageenin): 28.1% | Inhibition (%) ([1]; 5.0 mg/kg i.v. as 4-biphenylylacetic acid, 4 h after carrageenin): 23.1% | Inhibition (%) ([1]; 5.0 mg/kg i.v. as 4-biphenylylacetic acid, 5 h after carrageenin): 23.5% | Inhibition (%) ([1]; 5.0 mg/kg i.v. as 4-biphenylylacetic acid, 6 h after carrageenin): 19.1% | Inhibition (%) ([1]; 10.0 mg/kg i.v. as 4-biphenylylacetic acid, 2 h after carrageenin): 22.8% | Inhibition (%) ([1]; 10.0 mg/kg i.v. as 4-biphenylylacetic acid, 3 h after carrageenin): 22.8% | Inhibition (%) ([1]; 10.0 mg/kg i.v. as 4-biphenylylacetic acid, 4 h after carrageenin): 26.9% | Inhibition (%) ([1]; 10.0 mg/kg i.v. as 4-biphenylylacetic acid, 5 h after carrageenin): 25.5% | Inhibition (%) ([1]; 10.0 mg/kg i.v. as 4-biphenylylacetic acid, 6 h after carrageenin): 27.7% | ED30 ([1]; Rattus norvegicus, iv, read-out: ED30 (dose required to cause a 30% inhibition of edema volume)): 15.8 mg/kg | Inhibition (%) ([2]; 1.25 mg/kg/day i.v. as 4-biphenylylacetic acid, day 15): -8.0% | Inhibition (%) ([2]; 1.25 mg/kg/day i.v. as 4-biphenylylacetic acid, day 16): -5.1% | Inhibition (%) ([2]; 1.25 mg/kg/day i.v. as 4-biphenylylacetic acid, day 17): -3.3% | Inhibition (%) ([2]; 1.25 mg/kg/day i.v. as 4-biphenylylacetic acid, day 18): -4.6% | Inhibition (%) ([2]; 1.25 mg/kg/day i.v. as 4-biphenylylacetic acid, day 21): -19.2% | Inhibition (%) ([2]; 1.25 mg/kg/day i.v. as 4-biphenylylacetic acid, day 24): -23.2% | Inhibition (%) ([2]; 2.5 mg/kg/day i.v. as 4-biphenylylacetic acid, day 15): -3.7% | Inhibition (%) ([2]; 2.5 mg/kg/day i.v. as 4-biphenylylacetic acid, day 16): 0% | Inhibition (%) ([2]; 2.5 mg/kg/day i.v. as 4-biphenylylacetic acid, day 17): 6.7% | Inhibition (%) ([2]; 2.5 mg/kg/day i.v. as 4-biphenylylacetic acid, day 18): 5.8% | Inhibition (%) ([2]; 2.5 mg/kg/day i.v. as 4-biphenylylacetic acid, day 21): -6.5% | Inhibition (%) ([2]; 2.5 mg/kg/day i.v. as 4-biphenylylacetic acid, day 24): -17.5% | Inhibition (%) ([2]; 5.0 mg/kg/day i.v. as 4-biphenylylacetic acid, day 15): 5.6% | Inhibition (%) ([2]; 5.0 mg/kg/day i.v. as 4-biphenylylacetic acid, day 16): 7.2% | Inhibition (%) ([2]; 5.0 mg/kg/day i.v. as 4-biphenylylacetic acid, day 17): 15.5% | Inhibition (%) ([2]; 5.0 mg/kg/day i.v. as 4-biphenylylacetic acid, day 18): 15.0% | Inhibition (%) ([2]; 5.0 mg/kg/day i.v. as 4-biphenylylacetic acid, day 21): 8.9% | Inhibition (%) ([2]; 5.0 mg/kg/day i.v. as 4-biphenylylacetic acid, day 24): 1.3% | Inhibition (%) ([2]; 10.0 mg/kg/day i.v. as 4-biphenylylacetic acid, day 15): 2.8% | Inhibition (%) ([2]; 10.0 mg/kg/day i.v. as 4-biphenylylacetic acid, day 16): 10.7% | Inhibition (%) ([2]; 10.0 mg/kg/day i.v. as 4-biphenylylacetic acid, day 17): 15.2% | Inhibition (%) ([2]; 10.0 mg/kg/day i.v. as 4-biphenylylacetic acid, day 18): 15.6% | Inhibition (%) ([2]; 10.0 mg/kg/day i.v. as 4-biphenylylacetic acid, day 21): 3.0% | Inhibition (%) ([2]; 10.0 mg/kg/day i.v. as 4-biphenylylacetic acid, day 24): -9.8% | ED20 ([2]; Rattus norvegicus, iv, read-out: ED20 (dose required to cause a 20% inhibition of adjuvant-injected paw volume)): 14.5 mg/kg | ED50 [3]: 3.1 mg/kg | Transferability to the tissues [4]: showed the same transferability to the tissues

O=C(O)CCC(=O)c1ccc(-c2ccccc2)cc1 [Fenbufen, 4-(4-biphenyl)-4-oxobutyric acid]
Side effects on the digestive organs [5]: considerably reduced as compared with conventional non-steroidal anti-inflammatory agents

Reference: patent US4647586A, “Pharmaceutical oil-in-water type micro-emulsion” (priority 1984, dated 1987)
